Measured values published in patent US20240124396A1, “AMINO LIPID COMPOUND, PREPARATION METHOD THEREFOR, AND USE THEREOF” (SHENZHEN SHENXIN BIOTECHNOLOGY CO., LTD., priority 2021, published 2024).

These compounds were tested on Ovalbumin mRNA (OVA mRNA) (assay: Ovalbumin mRNA in vivo delivery and immunization performance of lipid nanoparticles (ELISA IgG titer)). Settings: LNP with OVA mRNA, 0.5 mg/kg subcutaneous injection Day 0 and Day 7, blood on the 21st day, FIG. 1 and FIG. 2.
Parameters: species or system BALB/c mice
Procedure: Evaluation of Ovalbumin mRNA In Vivo Delivery and Immunization Performance of Lipid Nanoparticles (Delivery Vector) Prepared from Amino Lipid Compounds • Preparation process: The amino lipid compound described in the present invention, DSPC, cholesterol, and PEG2000-DMG were mixed and dissolved in absolute ethanol in a molar ratio of 50:10:38.5:1.5. Ovalbumin mRNA (OVA mRNA) was dissolved in a sodium acetate solution (50 mM, pH=4.0). Two microinjection pumps were used, and the ratio of ethanol solution to sodium acetate solution (50 mM, pH=4.0) was controlled to be 1:3. A crude solution of lipid nanoparticles was prepared in a microflow channel chip, then dialyzed for 6 hours with 1×PBS at a controlled temperature of 4° C. by using a dialysis cassette (Fisher, MWCO 20,000), and filtered with a 0.22 μm microporous filter membrane before use. The mass ratio of the amino lipid compound to ovalbumin mRNA (OVA mRNA) was about 10:1. • Animal preparation: 6-week-old male BALB/c mice with body weights of about 20 g were selected, and fed in an SPF-grade feeding room. Animal experiments were strictly carried out according to the guidelines of the national health institution and the requirements of animal ethics. • In vivo delivery: 3 mice were randomly selected per group and injected with lipid nanoparticles at a dose of 0.5 mg/kg by subcutaneous injection (Day 0). After 7 days, the same amount was used for another boost (Day 7). Tail vein blood was taken on the 21st day for the serological analysis. DLin-MC3 was used as the control. • Enzyme-linked immunosorbent assay (ELISA): a flat-bottomed 96-well plate (Nunc) was pre-coated with a concentration of OVA protein of 0.5 μg protein per well in 50 mM carbonate buffer (pH 9.6), and was allowed to stay overnight at 4° C., and then blocked with 5% glycine. Anti-serums, proteins obtained from immune animals, were diluted from 10^2 to 10^6 with PBS-0.05% Tween (PBS-T) at pH 7.4, added to the wells and incubated at room temperature, and placed at 37° C. for 1 hour. Horseradish peroxidase (HRP) coupled goat anti-mouse IgG was used for labeling in PBS-T-1% BSA at a dilution rate of 1:10,000. After the addition of the HRP substrate, the optical density was determined at a wavelength, and the absorbance at 450 nm was measured in an ELISA microplate reader (Bio-Rad).
It will be appreciated that modifications and variations are possible to those skilled in the art in light of the above teachings, and it is intended that the present invention cover all such modifications and variations as fall within the scope of the appended claims.

SMILES | IgG antibody titers compared with the DLin-MC3 control group
CCCCC/C=C\C/C=C\CCCCCCC[C@@H]1[C@@H](C(=O)OCCN2CCCCC2)CC(=O)N1CCCCCCCCCCCC (racemic) [Compound N12A20C4O10] | significantly superior
CCCCCCCCCCCCN1C(=O)C[C@H](C(=O)OCCCN(C)C)[C@H]1CCCCCCCCCCC (racemic) [Compound N12A12C4O2] | comparable
CCCCCCCCCCCCN1C(=O)C[C@H](C(=O)NCCN(C)C)[C@H]1CCCCCCCCCCC (racemic) [Compound N12A12C4D1] | significantly superior
CCCCCCCCCCCCCCCCN1C(=O)CC[C@H](C(=O)OCCN2CCCCC2)[C@H]1CCCCCCCCC (racemic) [Compound N16A10C5O10] | significantly superior

Each compound was assayed on Luciferase mRNA (Fluc mRNA) (assay: Luciferase mRNA in vivo delivery performance of lipid nanoparticles prepared from amino lipid compounds). Settings: batch 1; LNP with Fluc mRNA, 0.5 mg/kg intramuscular injection, mice, total fluorescence intensity imaged 6 hours after dosing.
Parameters: species or system BALB/c mice
Procedure: Evaluation of Luciferase mRNA In Vivo Delivery Performance of Lipid Nanoparticles Prepared from Amino Lipid Compounds • Preparation process: The delivery vector in the present invention, DSPC, cholesterol, and PEG2000-DMG were mixed and dissolved in absolute ethanol in a molar ratio of 50:10:38.5:1.5. Luciferase mRNA (Fluc mRNA) was dissolved in a sodium acetate solution (50 mM, pH=4.0). Two microinjection pumps were used, and the ratio of ethanol solution to sodium acetate solution (50 mM, pH=4.0) was controlled to be 1:3. A crude solution of lipid nanoparticles was prepared in a microflow channel chip, then dialyzed for 6 hours with 1×PBS (phosphate buffer solution) at a controlled temperature of 4° C. by using a dialysis cassette (Fisher, MWCO 20,000), and filtered with a 0.22 μm microporous filter membrane before use. The mass ratio of the amino lipid compound to luciferase mRNA (Fluc mRNA) was about 10:1. • Animal preparation: 6-week-old male BALB/c mice with body weights of about 20 g were selected, and fed in an SPF-grade feeding room. Animal experiments were strictly carried out according to the guidelines of the national health institution and the requirements of animal ethics. • In vivo delivery: 3 mice were randomly selected per group and injected with lipid nanoparticles at a dose of 0.5 mg/kg by intramuscular injection. After 6 hours, 200 μL of 10 mg/mL potassium […] was injected into each mouse via the tail vein, and after 10 minutes, the mice were placed under an in vivo imaging system (IVIS-200, Xenogen), and the total fluorescence intensity of each mouse was observed and recorded by photographing.
Table 1 provides the expression intensities of Fluc mRNA delivered by the intramuscular injection administration of the representative amino lipid compounds with DLin-MC3 as the control (two batches of tests in total).

SMILES | Fluorescence intensity
CCCCC/C=C\C/C=C\CCCCCCC[C@@H]1[C@@H](C(=O)OCCCN(C)C)CC(=O)N1CCCCCCCCCCCCC (racemic) [Compound 19] | 2.1E+06
CCCCC/C=C\C/C=C\CCCCCCCCC(CCCCCCCC/C=C\C/C=C\CCCCC)OC(=O)CCCN(C)C [Dlin-MC3, reference compound] | 7.7E+06
CCCCCCCC/C=C\CCCCCCC[C@@H]1[C@@H](C(=O)OCCN2CCCC2)CC(=O)N1CCCCCCCCCCCCCCCC (racemic) [Compound 15] | 2.8E+07
CCCCCCCCCCCCCCC[C@@H]1[C@@H](C(=O)OCCN2CCCCC2)CCC(=O)N1CCCCCCCCCCCCC (racemic) [Compound 6] | 3.1E+05
CCCCC/C=C\C/C=C\CCCCCCC[C@@H]1[C@@H](C(=O)OCCN2CCCCC2)CC(=O)N1CCCCCCCCCCCC (racemic) [Compound N12A20C4O10] | 2.7E+06
CCCCCCCCCCCCCCCCN1C(=O)CC[C@H](C(=O)OCCCN2CCN(C)CC2)[C@H]1CCCCCCCCC (racemic) [Compound 4] | 2.8E+06
CCCCCCCCCCCCCCCCN1C(=O)CC[C@H](C(=O)OCCN2CCOCC2)[C@H]1CCCCCCCCCCC (racemic) [Compound 3] | 5.1E+06
CCCCCCCCCCCCCCCCN1C(=O)C[C@H](C(=O)NCCN2CCCCC2)[C@H]1CCCCCCCC (racemic) [Compound 9] | 6.1E+06
CCCCCCCCCCCCCCCCC[C@@H]1[C@@H](C(=O)NCCN2CCN(C)CC2)CC(=O)N1CCCCCC (racemic) [Compound 10] | 8.1E+05
CCCCC/C=C\C/C=C\CCCCCCC[C@@H]1[C@@H](C(=O)OCCN2CCCC2)CC(=O)N1CCCCCCCCCCCCCCCC (racemic) [Compound 20] | 5.2E+06
CCCCCCCC/C=C\CCCCCCCCN1C(=O)C[C@H](C(=O)NCCCN(C)C)[C@H]1CCCCCCCCCCC (racemic) [Compound 11] | 2.1E+06
CCCCCCCC/C=C\CCCCCCC[C@@H]1[C@@H](C(=O)OCCN2CCCCC2)CC(=O)N1CCCCCCCCCCCC (racemic) [Compound 16] | 1.4E+07
CCCCCCCCCCCCN1C(=O)C[C@H](C(=O)OCCCN(C)C)[C@H]1CCCCCCCCCCC (racemic) [Compound N12A12C4O2] | 2.8E+06
CCCCCCCCCCCCN1C(=O)C[C@H](C(=O)NCCN(C)C)[C@H]1CCCCCCCCCCC (racemic) [Compound N12A12C4D1] | 2.9E+07
CCCCCCCCCCCCCCCCC[C@@H]1[C@@H](C(=O)OCC2CCN(C)CC2)CCC(=O)N1CCCCCCCCCCCC (racemic) [Compound 7] | 6.1E+05
CCCCCCCCCCCCCCCCN1C(=O)CC[C@H](C(=O)OCCN2CCCCC2)[C@H]1CCCCCCCCC (racemic) [Compound N16A10C5O10] | 4.5E+06

Same assay, conditions: batch 2; LNP with Fluc mRNA, 0.5 mg/kg intramuscular injection, mice, total fluorescence intensity imaged 6 hours after dosing

SMILES | Fluorescence intensity
CCCCC/C=C\C/C=C\CCCCCCCCN1C(=O)C[C@H](C(=O)OCCN2CCCC2)[C@H]1CCCCCCCCCCCCCC (racemic) [Lipid 5] | 7.6E+06
CCCCCCCC/C=C\CCCCCCCCN1C(=O)C[C@H](C(=O)OCCN2CCCCC2)[C@H]1CCCCCCCCC (racemic) [Lipid 1] | 8.8E+06
CCCCC/C=C\C/C=C\CCCCCCCCC(CCCCCCCC/C=C\C/C=C\CCCCC)OC(=O)CCCN(C)C [Dlin-MC3, reference compound] | 6.9E+06
CCCCCCCC/C=C\CCCCCCCCN1C(=O)C[C@H](C(=O)OCCCN(C)C)[C@H]1CCCCCCCCCCCCCC (racemic) [Lipid 2] | 4.9E+06
CCCCC/C=C\C/C=C\CCCCCCCCN1C(=O)C[C@H](C(=O)OCCCN2CCN(C)CC2)[C@H]1CCCCCCCCCCCC (racemic) [Lipid 6] | 3.7E+06
CCCCCCCC/C=C\CCCCCCC[C@@H]1[C@@H](C(=O)OCCN2CCCC2)CC(=O)N1CCCCCCCCCCCCCCCC (racemic) [Lipid 7] | 4.8E+07
CCCCC/C=C\C/C=C\CCCCCCCC[C@@H]1[C@@H](C(=O)OCC2CCN(C)CC2)CC(=O)N1CCCCCCCCCCCCC (racemic) [Lipid 10] | 3.6E+06
CCCCCCCC/C=C\CCCCCCC[C@@H]1[C@@H](C(=O)OCCN2CCCCC2)CC(=O)N1CCCCCCCCCCCC (racemic) [Lipid 8] | 2.3E+07
CCCCC/C=C\C/C=C\CCCCCCCC[C@@H]1[C@@H](C(=O)OCCN2CCCCC2)CC(=O)N1CCCCCCCCCCCC (racemic) [Lipid 9] | 4.2E+06
CCCCCCCC/C=C\CCCCCCCCN1C(=O)C[C@H](C(=O)OCCN2CCCC2)[C@H]1CCCCCCCCCCCCCCCCC (racemic) [Lipid 3] | 2.9E+07
